Measured values from the NIST ThermoML archive (doi:10.1016/j.jct.2017.08.024).
± gives the expanded uncertainty stated by the source.

Assays:
[1] = wn = mass fraction of the nth substance listed; conditions: for surface tension liquid-gas: wilhelmy plate; for viscosity: 101 kPa, Liquid, Concentric cylinders viscometry
[2] = for surface tension liquid-gas: wilhelmy plate; for viscosity: 101.33 kPa, Liquid, Concentric cylinders viscometry

OCCNCCO [diethanolamine] + O
[1]
Conditions | surface tension liquid-gas, w1 = 0.2 [mN/m] | surface tension liquid-gas, w1 = 0.3 [mN/m] | surface tension liquid-gas, w1 = 0.4 [mN/m] | surface tension liquid-gas, w1 = 1 [mN/m] | viscosity, w1 = 0.2 [mPa·s] | viscosity, w1 = 0.3 [mPa·s] | viscosity, w1 = 0.4 [mPa·s] | viscosity, w1 = 1 [mPa·s]
303.2 K | 63.3 ± 0.6 | 60.5 ± 0.6 | 58.3 ± 0.6 | 46 ± 0.6 | 1.64 ± 0.12 | 2.57 ± 0.13 | 4.27 ± 0.14 | 381.21 ± 20
313.2 K | 62.1 ± 0.6 | 58.8 ± 0.6 | 56.6 ± 0.6 | 44.1 ± 0.6 | 1.29 ± 0.12 | 1.98 ± 0.13 | 3.01 ± 0.13 | 188.64 ± 6.6
323.2 K | 59.9 ± 0.6 | 57.4 ± 0.6 | 54.7 ± 0.6 | 42.8 ± 0.6 | 1.03 ± 0.12 | 1.42 ± 0.12 | 2.27 ± 0.13 | 105.98 ± 5.5

O [water]
[2]
Conditions | surface tension liquid-gas [mN/m] | viscosity [mPa·s]
303.2 K | 71.1 ± 0.6 | 0.8 ± 0.12
313.2 K | 69.4 ± 0.6 | 0.65 ± 0.12
323.2 K | 67.7 ± 0.6 | 0.55 ± 0.12

NCCO [2-aminoethan-1-ol]
[2]
Conditions | surface tension liquid-gas [mN/m] | viscosity [mPa·s]
303.2 K | 47.7 ± 0.6 | 14.47 ± 0.45
313.2 K | 45.9 ± 0.6 | 9.87 ± 0.15
323.2 K | 44.2 ± 0.6 | 6.79 ± 0.14

CO [methanol]
[2]
Conditions | surface tension liquid-gas [mN/m] | viscosity [mPa·s]
303.2 K | 21.7 ± 0.6 | 0.51 ± 0.12
313.2 K | 20.9 ± 0.6 | 0.44 ± 0.12
323.2 K | 20 ± 0.6 | 0.39 ± 0.12

O [water] + OCCNCCO
[1], w2 = 0
Conditions | surface tension liquid-gas [mN/m] | viscosity [mPa·s]
303.2 K | 71.1 ± 0.6 | 0.8 ± 0.12
313.2 K | 69.4 ± 0.6 | 0.65 ± 0.12
323.2 K | 67.7 ± 0.6 | 0.55 ± 0.12

O [water] + NCCO
[1], w2 = 0
Conditions | surface tension liquid-gas [mN/m] | viscosity [mPa·s]
303.2 K | 71.1 ± 0.6 | 0.8 ± 0.12
313.2 K | 69.4 ± 0.6 | 0.65 ± 0.12
323.2 K | 67.7 ± 0.6 | 0.55 ± 0.12

NCCO [2-aminoethan-1-ol] + O
[1]
Conditions | surface tension liquid-gas, w1 = 0.2 [mN/m] | surface tension liquid-gas, w1 = 0.3 [mN/m] | surface tension liquid-gas, w1 = 0.4 [mN/m] | surface tension liquid-gas, w1 = 1 [mN/m] | viscosity, w1 = 0.2 [mPa·s] | viscosity, w1 = 0.3 [mPa·s] | viscosity, w1 = 0.4 [mPa·s] | viscosity, w1 = 1 [mPa·s]
303.2 K | 62.1 ± 0.6 | 59.7 ± 0.6 | 57.8 ± 0.6 | 47.7 ± 0.6 | 1.51 ± 0.12 | 2.11 ± 0.13 | 3.12 ± 0.13 | 14.47 ± 0.45
313.2 K | 60.4 ± 0.6 | 58.4 ± 0.6 | 56.3 ± 0.6 | 45.9 ± 0.6 | 1.18 ± 0.12 | 1.63 ± 0.12 | 2.29 ± 0.13 | 9.87 ± 0.15
323.2 K | 58.9 ± 0.6 | 56.4 ± 0.6 | 54.6 ± 0.6 | 44.2 ± 0.6 | 0.97 ± 0.12 | 1.31 ± 0.12 | 1.79 ± 0.12 | 6.79 ± 0.14

OCCNCCO [diethanolamine]
[2]
Conditions | surface tension liquid-gas [mN/m] | viscosity [mPa·s]
303.2 K | 46 ± 0.6 | 381.21 ± 20
313.2 K | 44.1 ± 0.6 | 188.64 ± 6.6
323.2 K | 42.8 ± 0.6 | 105.98 ± 5.5
